From ChEMBL document CHEMBL1158049, “Bisindole alkaloids from myxomycetes Arcyria denudata and Arcyria obvelata” (J Nat Prod, 2006)
Values after ≈ are worked out from the molar mass of the structure shown.

The compounds below were run on Jurkat (assay: Cytotoxicity against human Jurkat cells after 42 hrs by alamar blue assay).
Assay type: functional, cell-based

SMILES | IC50 [µg/mL]
O=C1NC(=O)C(c2c[nH]c3cc(OS(=O)(=O)O)ccc23)=C1c1c[nH]c2ccccc12 | > 25
O=C1NC(=O)C(c2c[nH]c3cc(O)ccc23)=C1c1c[nH]c2ccccc12 [ARCYRIARUBIN B] | 10 (≈ 29.1 µM)
O=C1NC(=O)[C@H]2c3c[nH]c4cccc(c34)-c3[nH]c4ccccc4c3[C@@H]12 [DIHYDROARCYRIACYANIN A] | 7 (≈ 21.4 µM)
O=C1NC(=O)C2=C1c1c([nH]c3cc(O)ccc13)Oc1cccc3[nH]cc2c13 [ARCYROXOCIN B] | 7 (≈ 19.6 µM)
